According to patent publication US10280170B2, “Substituted 4,5,6,7-tetrahydro-pyrazolo[1,5-a]pyrazine derivatives and 5,6,7,8-tetrahydro-4H-pyrazolo[1,5-a][1,4]diazepine derivatives as Ros1 inhibitors” (Janssen Pharmaceutica NV, priority 2014, dated 2019):
Where two headings read alike, the source gives them in different places.

Legend:
[1] = target: Ba/F3 cells containing Ros1 with a mutation at the gatekeeper residue (L2026M) (Homo sapiens, UniProt P08922, L2026M, cells depend on it, form not given); assay: Ba/F3-Ros1 cell proliferation assay, L2026M gatekeeper mutant; assay type: cell-based, murine; settings: without IL-3
Experimental: (§1) Ba/F3-Ros1 Cell Proliferation Assay
(§2) This assay was carried out with Ba/F3 cells containing three different versions of Ros1: the wild-type protein, protein with a mutation at the gatekeeper residue (L2026M), and protein with a mutation identified in a tumor from a patient that became resistant to crizotinib (Xalkori®) treatment (G2032R). Compounds were solubilized in 100% DMSO (dimethyl sulfoxide) and sprayed into polystyrene, tissue culture treated 384-well plates. A 50 μl volume of cell culture medium (phenol red free RPMI-1640, 10% FBS (fetal bovine serum), 2 mM L-Glutamine) containing 20000 Ba/F3-Ros1 cells was added to each well and the plates were placed in an incubator at 37° C. and 5% CO2. After 24 hours, 10 μl of Alamar Blue solution (0.5 mM K3Fe(CN)6, 0.5 mM K4Fe(CN)6, 0.15 mM Resazurin and 100 mM Phosphate Buffer) was added to the wells, incubated for 4 hours at 37° C. and 5% CO2 before RFU's (Relative Fluorescence Units) (ex. 540 nm., em. 590 nm.) were measured in a fluorescence plate reader.

Ros1 enzyme = target: T1, Ros1 enzyme (Homo sapiens, UniProt P08922); assay: Ros1 enzymatic assay; assay type: biochemical; settings: Ros1 enzymatic assay; read-out: ROS1 pIC50 (converted)
T1 construct: 0.5 μg/ml Ros1 enzyme
Experimental: Compounds were spotted onto white 384-well Proxiplate plus plates (Perkin Elmer) to which 5 μl of enzyme mix (0.5 μg/ml Ros1 enzyme, 50 mM Tris-HCl pH7.5, 1 mM EGTA, 10 mM MgCl2, 0.01% Tween-20) and 5 μl of substrate mix (6 μg/ml IRS-Tide [American Peptide Company], 20 μM ATP, 13.33 μCi/ml ATP (adenosine 5′-triphosphate) P^33, 50 mM Tris-HCl pH7.5, 1 mM EGTA (ethylene glycol-bis(2-aminoethylether)-N,N,N′,N′-tetraacetic acid), 10 mM MgCl2, 0.01% Tween-20) were added. After incubation for 120 minutes at room temperature, 10 μl of stop reaction buffer (5 mM EDTA, 50 μM ATP, 0.1% BSA (bovine serum albumin), 0.1% Triton X-100, 50 mM Tris-HCl pH7.5, 1 mM EGTA, 10 mM MgCl2, 0.01% Tween-20) containing 2 mg/ml streptavidin coupled polystyrene imaging beads (Amersham Biosciences) was added and incubated for 15 minutes at room temperature. Plates were centrifuged for 3 minutes at 1500 rpm and signals detected in a LEADseeker imaging system (GE).

[2] = target: T2, Ba/F3 cells containing Ros1 wild-type protein (Homo sapiens, UniProt P08922, cells depend on it, form not given); assay: Ba/F3-Ros1 cell proliferation assay, wild-type Ros1; assay type: cell-based, murine; settings: without IL-3
T2 construct: The background only speaks of 'a number of different unrelated proteins' and names SLC34A2-ROS1 for HCC78 cells
Experimental: as §1, §2

[3] = test system: Ba/F3 cells containing Ros1 wild-type protein + IL-3; assay: Ba/F3-Ros1 cell proliferation counter-screen, wild-type protein in the presence of 10 ng/ml murine IL-3; assay type: cell-based; settings: Mus musculus, BaF3, 24 h, read-out: BaF3-ROS1 + IL3 pIC50 (converted)
Experimental: as §2
As a counter-screen the same experiment was performed for the wild-type protein in the presence of 10 ng/ml murine IL-3.

[4] = test system: HCC78 non-small cell lung cancer cells; assay: HCC78 cell proliferation assay; assay type: cell-based; settings: for EC50: Homo sapiens, HCC78, 96 h, read-out: HCC-78 PROL pEC50 (converted)
Experimental: HCC78 Cell Proliferation Assay
Approximately 1000 HCC78 non-small cell lung cancer cells in 180 μl of cell culture medium (RPMI-1640, 10% FBS, 2 mM L-Glutamine, 10 mM Hepes, 1 mM sodium pyruvate, 4.5 g/L glucose, 1.5 g/L sodium bicarbonate, 25 μg/ml Gentamycin) were seeded in each well of a 96-well polystyrene, tissue-culture treated plate and incubated at 37° C. and 5% CO2. After 24 hours, compounds were diluted in cell culture medium from which 20 μl was added to the wells containing cells and incubated for 4 days at 37° C. and 5% CO2. A 5 mg/ml solution of the tetrazolium dye MTT was prepared in PBS (phosphate-buffered saline) and 25 μl was added to each well. After 2 hours the medium was removed and replaced by 125 μL of 4/1 DMSO/glycine buffer (0.1M glycine, 0.1M NaCl, pH 10.5) before absorbance was determined at 538 nm.

[5] = counter-screen, wild-type, 10 ng/ml murine IL-3

T2 sequence (P08922 whole entry, stated change not applied): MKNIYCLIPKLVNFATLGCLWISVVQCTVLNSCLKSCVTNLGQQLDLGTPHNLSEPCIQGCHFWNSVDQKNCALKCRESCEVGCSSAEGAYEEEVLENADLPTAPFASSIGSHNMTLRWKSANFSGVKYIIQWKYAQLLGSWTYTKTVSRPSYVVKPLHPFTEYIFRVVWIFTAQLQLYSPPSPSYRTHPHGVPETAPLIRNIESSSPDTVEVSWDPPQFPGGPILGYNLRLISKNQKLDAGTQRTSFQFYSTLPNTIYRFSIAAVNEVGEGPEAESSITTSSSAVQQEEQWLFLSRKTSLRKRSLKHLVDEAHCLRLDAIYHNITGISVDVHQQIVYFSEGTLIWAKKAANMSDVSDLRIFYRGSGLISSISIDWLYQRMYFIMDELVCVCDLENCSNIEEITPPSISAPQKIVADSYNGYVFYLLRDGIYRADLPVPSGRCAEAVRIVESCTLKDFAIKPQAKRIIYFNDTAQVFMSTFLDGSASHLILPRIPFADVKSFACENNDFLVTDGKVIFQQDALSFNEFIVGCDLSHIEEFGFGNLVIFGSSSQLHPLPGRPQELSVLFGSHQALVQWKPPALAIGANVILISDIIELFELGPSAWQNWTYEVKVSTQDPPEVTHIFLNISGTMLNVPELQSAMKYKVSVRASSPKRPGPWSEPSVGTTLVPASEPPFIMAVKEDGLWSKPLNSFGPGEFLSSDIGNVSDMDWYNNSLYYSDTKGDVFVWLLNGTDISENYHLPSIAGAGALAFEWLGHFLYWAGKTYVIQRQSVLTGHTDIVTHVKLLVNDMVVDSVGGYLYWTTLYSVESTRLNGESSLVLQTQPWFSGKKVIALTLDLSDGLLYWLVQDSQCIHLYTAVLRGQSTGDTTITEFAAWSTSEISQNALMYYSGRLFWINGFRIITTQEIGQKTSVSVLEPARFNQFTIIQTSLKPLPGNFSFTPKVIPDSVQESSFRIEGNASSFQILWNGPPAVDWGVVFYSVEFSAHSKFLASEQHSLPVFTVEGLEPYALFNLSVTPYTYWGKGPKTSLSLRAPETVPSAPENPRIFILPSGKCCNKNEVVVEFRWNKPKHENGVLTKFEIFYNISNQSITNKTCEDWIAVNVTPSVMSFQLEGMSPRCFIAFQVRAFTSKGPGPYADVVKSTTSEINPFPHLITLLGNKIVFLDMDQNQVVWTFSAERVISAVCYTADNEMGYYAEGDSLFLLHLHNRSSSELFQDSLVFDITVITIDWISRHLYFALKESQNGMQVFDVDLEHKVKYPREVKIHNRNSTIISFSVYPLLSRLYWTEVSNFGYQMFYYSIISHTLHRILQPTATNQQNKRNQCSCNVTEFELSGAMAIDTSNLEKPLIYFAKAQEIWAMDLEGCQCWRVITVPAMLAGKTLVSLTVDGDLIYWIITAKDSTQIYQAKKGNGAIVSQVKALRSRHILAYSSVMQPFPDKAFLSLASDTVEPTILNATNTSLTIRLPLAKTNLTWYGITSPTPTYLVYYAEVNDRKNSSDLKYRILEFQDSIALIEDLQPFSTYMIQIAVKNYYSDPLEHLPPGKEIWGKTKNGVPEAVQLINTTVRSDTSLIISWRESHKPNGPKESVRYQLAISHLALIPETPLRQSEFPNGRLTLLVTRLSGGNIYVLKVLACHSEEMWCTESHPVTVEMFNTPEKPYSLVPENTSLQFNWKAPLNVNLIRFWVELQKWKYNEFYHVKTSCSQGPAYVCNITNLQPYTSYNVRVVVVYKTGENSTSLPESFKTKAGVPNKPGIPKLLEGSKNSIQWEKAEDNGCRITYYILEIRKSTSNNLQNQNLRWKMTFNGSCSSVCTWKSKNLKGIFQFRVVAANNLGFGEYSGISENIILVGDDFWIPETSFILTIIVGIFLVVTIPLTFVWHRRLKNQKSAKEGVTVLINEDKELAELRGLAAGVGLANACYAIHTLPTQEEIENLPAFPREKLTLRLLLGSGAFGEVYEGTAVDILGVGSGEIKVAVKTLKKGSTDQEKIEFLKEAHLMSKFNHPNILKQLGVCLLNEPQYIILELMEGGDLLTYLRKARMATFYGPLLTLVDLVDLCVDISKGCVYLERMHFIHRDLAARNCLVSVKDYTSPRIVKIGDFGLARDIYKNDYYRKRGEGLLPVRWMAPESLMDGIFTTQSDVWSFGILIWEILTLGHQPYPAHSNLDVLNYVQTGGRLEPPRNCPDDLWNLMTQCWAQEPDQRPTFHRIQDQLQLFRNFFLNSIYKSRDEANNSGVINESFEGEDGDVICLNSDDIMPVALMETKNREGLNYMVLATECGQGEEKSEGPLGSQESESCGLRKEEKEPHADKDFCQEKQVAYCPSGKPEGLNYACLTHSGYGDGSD
Chain of Ba/F3 cells containing Ros1 with a mutation at the gatekeeper residue (L2026M) (P08922 whole entry L2026M, form open): as the sequence (P08922 whole entry, stated change not applied) above, with L2026M counted along it
T1 sequence (P08922 28-2347): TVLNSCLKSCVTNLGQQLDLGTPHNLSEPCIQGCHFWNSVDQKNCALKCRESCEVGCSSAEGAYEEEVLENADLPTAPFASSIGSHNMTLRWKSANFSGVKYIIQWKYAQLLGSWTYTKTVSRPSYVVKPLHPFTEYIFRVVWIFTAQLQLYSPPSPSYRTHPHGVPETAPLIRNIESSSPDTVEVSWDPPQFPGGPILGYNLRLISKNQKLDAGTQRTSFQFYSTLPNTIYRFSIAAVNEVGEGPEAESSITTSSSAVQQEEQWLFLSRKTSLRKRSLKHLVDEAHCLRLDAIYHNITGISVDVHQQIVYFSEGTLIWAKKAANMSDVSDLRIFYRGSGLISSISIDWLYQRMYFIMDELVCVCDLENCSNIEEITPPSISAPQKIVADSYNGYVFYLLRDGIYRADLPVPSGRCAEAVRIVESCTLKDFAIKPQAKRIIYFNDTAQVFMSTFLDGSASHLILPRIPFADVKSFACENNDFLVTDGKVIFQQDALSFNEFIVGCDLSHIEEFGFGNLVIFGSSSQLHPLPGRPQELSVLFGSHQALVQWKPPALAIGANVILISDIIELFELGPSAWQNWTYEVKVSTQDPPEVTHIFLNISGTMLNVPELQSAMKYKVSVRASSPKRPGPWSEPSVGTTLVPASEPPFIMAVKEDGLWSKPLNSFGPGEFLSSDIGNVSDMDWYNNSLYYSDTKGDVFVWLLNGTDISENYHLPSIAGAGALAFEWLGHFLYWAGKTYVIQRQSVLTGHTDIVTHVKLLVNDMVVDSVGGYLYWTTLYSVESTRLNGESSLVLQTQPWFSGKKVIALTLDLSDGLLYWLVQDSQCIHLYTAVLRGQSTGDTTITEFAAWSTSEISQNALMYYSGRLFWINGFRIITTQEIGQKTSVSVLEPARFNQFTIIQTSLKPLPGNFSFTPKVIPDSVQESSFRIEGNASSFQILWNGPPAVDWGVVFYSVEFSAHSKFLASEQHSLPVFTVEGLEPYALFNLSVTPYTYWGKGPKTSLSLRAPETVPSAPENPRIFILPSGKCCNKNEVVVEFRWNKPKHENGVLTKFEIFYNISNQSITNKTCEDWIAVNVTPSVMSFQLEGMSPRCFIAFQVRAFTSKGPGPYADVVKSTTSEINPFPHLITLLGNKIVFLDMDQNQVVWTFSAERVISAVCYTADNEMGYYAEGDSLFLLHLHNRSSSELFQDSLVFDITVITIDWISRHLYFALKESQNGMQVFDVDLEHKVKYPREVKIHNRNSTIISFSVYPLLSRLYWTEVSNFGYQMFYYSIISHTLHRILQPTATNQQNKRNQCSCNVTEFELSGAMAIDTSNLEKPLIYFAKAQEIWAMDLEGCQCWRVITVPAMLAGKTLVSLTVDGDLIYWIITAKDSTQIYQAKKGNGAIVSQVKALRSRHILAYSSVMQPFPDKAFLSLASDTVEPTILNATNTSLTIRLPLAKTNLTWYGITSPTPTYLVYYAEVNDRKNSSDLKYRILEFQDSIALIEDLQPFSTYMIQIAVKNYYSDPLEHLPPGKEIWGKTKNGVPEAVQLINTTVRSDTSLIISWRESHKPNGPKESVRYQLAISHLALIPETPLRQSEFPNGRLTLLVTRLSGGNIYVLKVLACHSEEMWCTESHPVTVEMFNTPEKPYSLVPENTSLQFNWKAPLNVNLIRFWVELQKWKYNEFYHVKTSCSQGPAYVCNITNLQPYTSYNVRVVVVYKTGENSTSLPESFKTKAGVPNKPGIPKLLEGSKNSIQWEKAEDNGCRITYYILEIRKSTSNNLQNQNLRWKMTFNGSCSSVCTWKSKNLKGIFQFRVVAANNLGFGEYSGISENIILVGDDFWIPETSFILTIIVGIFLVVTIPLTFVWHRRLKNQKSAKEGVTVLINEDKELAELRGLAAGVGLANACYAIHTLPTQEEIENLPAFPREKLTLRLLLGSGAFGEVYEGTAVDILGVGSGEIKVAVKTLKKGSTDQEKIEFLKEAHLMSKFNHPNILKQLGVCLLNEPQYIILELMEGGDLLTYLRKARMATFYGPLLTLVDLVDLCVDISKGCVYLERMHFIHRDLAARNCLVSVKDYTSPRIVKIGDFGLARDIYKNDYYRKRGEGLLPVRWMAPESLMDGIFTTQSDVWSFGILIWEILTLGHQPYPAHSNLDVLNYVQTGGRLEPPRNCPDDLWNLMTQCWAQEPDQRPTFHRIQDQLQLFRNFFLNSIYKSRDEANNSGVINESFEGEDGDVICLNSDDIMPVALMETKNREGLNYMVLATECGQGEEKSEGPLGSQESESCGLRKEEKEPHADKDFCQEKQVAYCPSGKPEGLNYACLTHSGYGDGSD

| HCC-78 PROL pEC50 ([4]; HCC78 cells, 4 days, MTT) | EC50 ([4]; HCC78 cells, 4 days, MTT) [nM] | SMILES | Ba/F3 Ros1 L2026M (-IL-3) pIC50 [1] | IC50 (Ros1 enzyme) [nM] | BaF3-ROS1-IL3 pIC50 [2] | CC50 [3, 5] [nM] | CC50 [3] [nM] | EC50 [4] [nM] |
| --- | --- | --- | --- | --- | --- | --- | --- | --- |
| 6.8 | – | CC(C)c1ccc(COc2ccc(-c3c(-c4ccncc4)nn4c3C(=O)N(C(C)CO)CC4)cc2)cc1 (single isomer, unassigned) [Compound 39] | 7.0 | 79.4 | 7.3 | > 10000 | – | – |
| – | – | CC(C)c1ccc(COc2cc(F)c(-c3c(-c4ccncc4)nn4c3C(=O)NCC4)cc2F)cc1 [Compound 14] | 8.2 | 6.31 | 7.8 | – | > 10000 | < 31.6 |
| – | – | CC(C)c1ccc(COc2c(F)cc(-c3c(-c4ccncc4)nn4c3C(=O)NCC4)cc2F)cc1 [Compound 15] | 7.5 | 39.8 | 7.5 | – | > 10000 | 50.1 |
| – | – | Cc1cc(-c2c(-c3ccncc3)nn3c2C(=O)N(CCO)CC3)ccc1OCc1ccc(C(C)C)cc1 [Compound 31] | 5.9 | 1580 | 6.3 | – | > 10000 | 6310 |
| – | – | CC(C)c1ccc(COc2ccc(-c3c(-c4ccncc4)nn4c3C(=O)N(CC3CNC(=O)O3)CC4)cc2)cc1 (centres unmarked) [Compound 56] | 7.0 | 39.8 | 7.5 | – | > 10000 | 126 |
| – | 1000 | CC(C)c1ccc(COc2ccc(-c3c(-c4ccncc4)nn4c3C(=O)N(CCCN)CC4)cc2)cc1 [Compound 58] | 7.0 | 20 | 7.3 | 6310 | – | – |
| – | 501 | CC(C)c1ccc(COc2ccc(-c3c(-c4ccncc4)nn4c3C(=O)N(CCN)CC4)cc2)cc1 [Compound 59] | ~6.1 | 63.1 | 6.4 | 5010 | – | – |
| – | 631 | CNCCN1CCn2nc(-c3ccncc3)c(-c3ccc(OCc4ccc(C(C)C)cc4)cc3)c2C1=O [Compound 60] | 6.2 | 63.1 | 6.6 | 3980 | – | – |
| – | – | CC(C)c1ccc(COc2ccc(-c3c(-c4ccncc4)nn4c3C(=O)N(CCN(C)C)CC4)cc2)cc1 [Compound 61] | 5.9 | – | 6.3 | – | > 10000 | 631 |
| – | – | CC(C)c1ccc(COc2ccc(-c3c(-c4ccncc4)nn4c3C(=O)N(CCNCC(F)(F)F)CC4)cc2)cc1 [Compound 62] | 6.6 | 200 | 7.0 | – | > 10000 | 501 |
| – | 200 | CC(=O)OC(C)CN1CCn2nc(-c3ccncc3)c(-c3ccc(OCc4ccc(C(C)C)cc4)cc3)c2C1=O (centres unmarked) [Compound 69] | <5 | 63.1 | 7.4 | > 10000 | – | – |
| – | – | CC(C)c1ccc(CC(=O)N2CC=C(c3c(-c4ccncc4)nn4c3C(=O)NCC4)CC2)cc1 [Compound 77] | 6.3 | 316 | 6.3 | – | > 10000 | 2000 |
| – | 501 | CC(C)c1ccc(COc2ccc(-c3c(-c4ccncc4)nn4c3C(=O)NCC4)cc2)cc1CN [Compound 86] | 6.9 | 10 | 7.2 | > 10000 | – | – |
| – | – | CC(C)c1ccc(COc2ccc(-c3c(-c4ccncc4)nn4c3C(=O)NCC4)cc2)cc1OCCO [Compound 89] | 7.1 | 31.6 | 7.6 | – | > 10000 | 200 |
| – | – | CC(C)c1ccc(COc2ccc(-c3c(-c4ccncc4)nn4c3C(=O)NCC4)cc2)cc1CC(O)CO (centres unmarked) [Compound 91] | 6.6 | 31.6 | 7.3 | – | > 10000 | 63.1 |
| – | – | CC(CO)c1ccc(COc2ccc(-c3c(-c4ccncc4)nn4c3C(=O)N(CCO)CC4)cc2)cc1 (centres unmarked) [Compound 128] | 6.2 | 1260 | 6.6 | – | > 10000 | 1000 |
| – | 2000 | O=C1c2c(-c3ccc(OCc4ccc(C5CC5)nc4)cc3)c(-c3ccncc3)nn2CCN1CC(O)CO (centres unmarked) [Compound 140] | 5.8 | 251 | 6.4 | > 10000 | – | – |
| <5.5 | – | CC(C)c1ccc(C(C)Oc2ccc(-c3c(-c4ccncc4)nn4c3C(=O)N(CCO)CC4)cc2)cc1 (centres unmarked) [Compound 145] | 5.1 | 3160 | 5.8 | – | – | – |
| – | 3980 | CC(C)c1ccc(C(CO)Oc2ccc(-c3c(-c4ccncc4)nn4c3C(=O)NCC4)cc2)cc1 (centres unmarked) [Compound 146] | 7.6 | 2000 | 6.2 | > 10000 | – | – |
| – | – | CC(C)c1ccc(COc2ccc(-c3c(-c4ccncn4)nn4c3C(=O)N(CCOCCO)CC4)cc2)cc1 [Compound 162] | 7.1 | 79.4 | 7.2 | – | > 10000 | 398 |
| – | 794 | CNC(=O)CN1CCn2nc(-c3ccncn3)c(-c3ccc(OCc4ccc(C(C)C)cc4)cc3)c2C1=O [Compound 164] | 6.7 | 158 | 7.0 | > 10000 | – | – |
| – | 251 | Fc1cc(OCc2ccc(C3CC3)cc2)ccc1-c1c(-c2ccncc2)nn2c1CNCC2 [Compound 184] | 6.6 | 100 | 7.3 | > 10000 | – | – |
| – | – | CC(C)c1ccc(COc2ccc(-c3c(-c4ccncc4)nn4c3CN(CCO)CC4)c(F)c2)cc1 [Compound 187] | 6.4 | 79.4 | 7.2 | – | > 10000 | 100 |
| – | – | CC(C)c1ccc(COc2ccc(-c3c(-c4ccncc4)nn4c3C(=O)N(C)C(CO)C4)cc2)cc1 (centres unmarked) [Compound 196] | 6.4 | 158 | 6.9 | – | > 10000 | 631 |
| – | – | CC(C)c1ccc(COc2cc(F)c(-c3c(-c4ccncc4)nn4c3C(=O)N(CCO)CC4)cc2F)cc1 [Compound 203] | 8.0 | 3.98 | 8.2 | – | > 10000 | 10 |
| – | – | O=C1c2c(-c3ccc(OCc4ccc(C5CC5)nc4)cc3F)c(-c3ccncc3)nn2CCN1CCO [Compound 207] | 6.5 | 20 | 7.1 | – | > 10000 | 501 |
